The NIST ThermoML archive (doi:10.1016/j.jct.2011.02.018)
Numbers after ± are expanded uncertainties.

Assay: xn = mol fraction of the nth substance listed
Settings: 101 kPa, Liquid; for viscosity: Concentric cylinders viscometry; for mass density: Vibrating tube method

COC(C)(C)C [2-methoxy-2-methylpropane] + CCCCCO
Settings	mass density, 293.15 K [kg/m3]	mass density, 298.15 K [kg/m3]	mass density, 303.15 K [kg/m3]	mass density, 308.15 K [kg/m3]	viscosity, 293.15 K [mPa·s]	viscosity, 298.15 K [mPa·s]	viscosity, 303.15 K [mPa·s]	viscosity, 308.15 K [mPa·s]
x1 = 0.0105	813.89 ± 0.29	810.25 ± 0.29	806.55 ± 0.29	802.82 ± 0.29	3.895 ± 0.16	3.372 ± 0.14	2.932 ± 0.12	2.562 ± 0.1
x1 = 0.0197	813.34 ± 0.29	809.68 ± 0.29	805.95 ± 0.29	802.2 ± 0.29	3.775 ± 0.15	3.273 ± 0.13	2.852 ± 0.12	2.493 ± 0.1
x1 = 0.0321	812.56 ± 0.29	808.89 ± 0.29	805.15 ± 0.29	801.39 ± 0.29	3.615 ± 0.15	3.143 ± 0.13	2.743 ± 0.11	2.406 ± 0.099
x1 = 0.0401	812.06 ± 0.29	808.37 ± 0.29	804.63 ± 0.29	800.86 ± 0.29	3.516 ± 0.14	3.059 ± 0.13	2.675 ± 0.11	2.344 ± 0.096
x1 = 0.0506	811.39 ± 0.29	807.69 ± 0.29	803.93 ± 0.29	800.15 ± 0.29	3.394 ± 0.14	2.958 ± 0.12	2.588 ± 0.11	2.274 ± 0.093
x1 = 0.0595	810.83 ± 0.29	807.12 ± 0.29	803.35 ± 0.29	799.56 ± 0.29	3.292 ± 0.14	2.872 ± 0.12	2.517 ± 0.1	2.214 ± 0.091
x1 = 0.0699	810.18 ± 0.29	806.45 ± 0.29	802.67 ± 0.29	798.87 ± 0.29	3.176 ± 0.13	2.778 ± 0.11	2.438 ± 0.1	2.149 ± 0.088
x1 = 0.0811	809.49 ± 0.28	805.73 ± 0.28	801.94 ± 0.29	798.11 ± 0.29	3.061 ± 0.13	2.683 ± 0.11	2.357 ± 0.097	2.079 ± 0.085
x1 = 0.0901	808.93 ± 0.28	805.14 ± 0.28	801.33 ± 0.28	797.5 ± 0.28	2.97 ± 0.12	2.606 ± 0.11	2.294 ± 0.094	2.028 ± 0.083
x1 = 0.1042	808.03 ± 0.28	804.23 ± 0.28	800.41 ± 0.28	796.55 ± 0.28	2.841 ± 0.12	2.495 ± 0.1	2.214 ± 0.091	1.949 ± 0.08
x1 = 0.1506	805.02 ± 0.28	801.2 ± 0.28	797.3 ± 0.28	793.39 ± 0.28	2.45 ± 0.1	2.168 ± 0.089	1.927 ± 0.079	1.716 ± 0.07
x1 = 0.2078	801.27 ± 0.27	797.36 ± 0.27	793.4 ± 0.27	789.41 ± 0.27	2.058 ± 0.084	1.837 ± 0.075	1.648 ± 0.067	1.473 ± 0.06
x1 = 0.252	798.32 ± 0.27	794.34 ± 0.27	790.33 ± 0.27	786.28 ± 0.27	1.809 ± 0.074	1.619 ± 0.066	1.457 ± 0.06	1.312 ± 0.054
x1 = 0.301	795.01 ± 0.26	790.96 ± 0.26	786.88 ± 0.26	782.75 ± 0.26	1.574 ± 0.064	1.418 ± 0.058	1.281 ± 0.052	1.159 ± 0.047
x1 = 0.3492	791.65 ± 0.26	787.57 ± 0.26	783.41 ± 0.26	779.21 ± 0.26	1.387 ± 0.057	1.254 ± 0.051	1.135 ± 0.046	1.033 ± 0.042
x1 = 0.3996	788.14 ± 0.26	783.99 ± 0.26	779.75 ± 0.26	775.48 ± 0.26	1.207 ± 0.049	1.098 ± 0.045	1 ± 0.041	0.9139 ± 0.037
x1 = 0.4577	784 ± 0.25	779.75 ± 0.25	775.42 ± 0.25	771.06 ± 0.25	1.042 ± 0.043	0.953 ± 0.039	0.8735 ± 0.036	0.8008 ± 0.033
x1 = 0.4985	781.06 ± 0.25	776.76 ± 0.25	772.36 ± 0.25	767.93 ± 0.25	0.9442 ± 0.039	0.8668 ± 0.036	0.7962 ± 0.033	0.7313 ± 0.03
x1 = 0.5512	777.21 ± 0.25	772.8 ± 0.25	768.33 ± 0.25	763.81 ± 0.25	0.8364 ± 0.034	0.7702 ± 0.032	0.7102 ± 0.029	0.6515 ± 0.027
x1 = 0.5999	773.61 ± 0.25	769.09 ± 0.25	764.55 ± 0.25	759.95 ± 0.25	0.7504 ± 0.031	0.6941 ± 0.029	0.6401 ± 0.026	0.5895 ± 0.024
x1 = 0.6506	769.72 ± 0.24	765.16 ± 0.25	760.51 ± 0.25	755.83 ± 0.25	0.6719 ± 0.028	0.6222 ± 0.026	0.5765 ± 0.024	0.5309 ± 0.022
x1 = 0.6986	766.04 ± 0.24	761.39 ± 0.24	756.67 ± 0.24	751.9 ± 0.25	0.606 ± 0.025	0.5627 ± 0.023	0.5215 ± 0.022	0.4812 ± 0.02
x1 = 0.7451	762.49 ± 0.24	757.72 ± 0.24	752.92 ± 0.24	748.06 ± 0.24	0.5517 ± 0.023	0.5167 ± 0.021	0.4765 ± 0.02	0.4421 ± 0.018
x1 = 0.7976	758.12 ± 0.24	753.3 ± 0.24	748.39 ± 0.24	743.42 ± 0.24	0.4971 ± 0.021	0.4653 ± 0.019	0.4332 ± 0.018	0.4011 ± 0.017
x1 = 0.8534	753.55 ± 0.24	748.61 ± 0.24	743.59 ± 0.24	738.51 ± 0.24	0.4455 ± 0.019	0.4172 ± 0.017	0.3868 ± 0.016	0.3584 ± 0.015
x1 = 0.898	749.74 ± 0.24	744.73 ± 0.24	739.63 ± 0.24	734.47 ± 0.24	0.4101 ± 0.017	0.3855 ± 0.016	0.3594 ± 0.015	0.3315 ± 0.014
x1 = 0.9098	748.75 ± 0.24	743.7 ± 0.24	738.59 ± 0.24	733.41 ± 0.24	0.4017 ± 0.017	0.3772 ± 0.016	0.3526 ± 0.015	0.3257 ± 0.014
x1 = 0.9195	747.92 ± 0.24	742.85 ± 0.24	737.72 ± 0.24	732.53 ± 0.24	0.3954 ± 0.017	0.3701 ± 0.016	0.3467 ± 0.015	0.3192 ± 0.014
x1 = 0.9289	747.1 ± 0.24	742.01 ± 0.24	736.85 ± 0.24	731.64 ± 0.24	0.388 ± 0.016	0.3658 ± 0.015	0.3396 ± 0.014	0.3137 ± 0.013
x1 = 0.9419	745.96 ± 0.24	740.85 ± 0.24	735.67 ± 0.24	730.43 ± 0.24	0.3807 ± 0.016	0.3564 ± 0.015	0.3307 ± 0.014	0.3102 ± 0.013
x1 = 0.9495	745.29 ± 0.24	740.17 ± 0.24	734.96 ± 0.24	729.72 ± 0.24	0.3752 ± 0.016	0.354 ± 0.015	0.3276 ± 0.014	0.3054 ± 0.013
x1 = 0.9594	744.4 ± 0.24	739.28 ± 0.24	734.04 ± 0.24	728.78 ± 0.24	0.3682 ± 0.015	0.3458 ± 0.015	0.3227 ± 0.014	0.3007 ± 0.013
x1 = 0.9688	743.56 ± 0.24	738.42 ± 0.24	733.17 ± 0.24	727.88 ± 0.24	0.3623 ± 0.015	0.3405 ± 0.014	0.317 ± 0.013	0.2966 ± 0.013
x1 = 0.9792	742.63 ± 0.24	737.46 ± 0.24	732.2 ± 0.24	726.89 ± 0.24	0.3563 ± 0.015	0.3352 ± 0.014	0.3104 ± 0.013	0.2916 ± 0.013
x1 = 0.9902	741.63 ± 0.24	736.44 ± 0.24	731.16 ± 0.24	725.83 ± 0.24	0.3533 ± 0.015	0.3291 ± 0.014	0.3035 ± 0.013	0.2863 ± 0.012
